The test system of data set [1] is PCR product of HBV mutant type. As to the kind of experiment: PNA microarray hybridization with biotinylated PCR product, streptavidine-Cy5 fluorescence (perfect match). It counts as binding, hepatitis B virus (HBV). As to the method:
The purified oligomer was diluted at a concentration of […], and spotted on a slide glass functionalized with epoxy group (Panagene, Korea) in pin mode, and the slide was allowed to stand for 4 hours at room temperature while maintaining 75% humidity. Then, it was immersed into DMF, and washed by ultrasonication for 15 minutes. It was immersed into DMF containing 0.1 M succinic anhydride and reacted at 40° C. for 2 hours. And the reaction mixture was washed by ultrasonication with DMF and deionized water, sequentially, for 15 minutes per time. Then, the slide was treated with 100 mM Tris-HCl buffer containing 0.1 M ethanolamine for 2 hours to inactivate the residual epoxy groups on the surface of the slide glass. The slide glass was washed by ultrasonication with deionized water, twice for 15 minutes per time, treated with boiling water for 5 minutes, washed with deionized water for 5 minutes, and dried. Then, a PNA microarray was ready for hybridization after attaching a silicon rubber sealing mat having holes, which can contain 100 μl of hybridization solution, to the slide glass.
To a hybridization solution of 100 μl was added 5 μl of the PCR product of HBV mutant type having biotin attached thereto, and streptavidine-Cy5 was added thereto to cause fluorescent reaction. […] The PNA microarray was scanned by a fluorescence scanner. […]

Data set [2] deals with PCR product of HBV wild type. Put plainly: PNA microarray hybridization with biotinylated PCR product, streptavidine-Cy5 fluorescence (single mismatch). It counts as binding, hepatitis B virus (HBV). The following applies: hybridization at 40° C. for 2 hours, fluorescence scanner, SEQ ID Nos. 2 to 4 compared to SEQ ID No. 1.

As for “k(k)k-OO-GAGCCATGAGAAA (all peptide nucleic acid (PNA); N-terminal lysines and OO linker attached) [SEQ ID No. 1, PNA oligomer, 13 mer consisting of natural bases to detect mutation]”, the perfect match signal result in data set [1] (PCR product of HBV mutant type, hybridization at 40° C. for 2 hours, fluorescence scanner, FIGS. 2 and 3) is given as “intensive perfect match signal”. Moreover, the “discriminability of HBV mutant type against wild type” value in data set [1] (perfect match signal for HBV mutant type versus single mismatch signal for HBV wild type) was “cannot discriminate HBV mutant type against wild type”. The single mismatch signal entry in data set [2] is “intensive single mismatch signal”.

Values taken from patent US20100292471A1, “PEPTIDE NUCLEIC ACID OLIGOMERS […] BASES,PREPARATION METHODS THEREOF, AND KITS, DEVICES AND METHODS FOR THE ANALYSIS, DETECTION OR MODULATION OF NUCLEIC ACIDS USING THE SAME” (PANAGENE INC., priority 2006, published 2010).
